MIC data for 15 compounds are collected here from ChEMBL document CHEMBL5226364, “Microbial Dimerization and Chlorination of Isoflavones by a Takla Makan Desert-Derived Streptomyces sp. HDN154127” (2023).

Common to all, as to format: functional
For experiment [1], the system named is Bacillus cereus. The experiment can be described thus: Antibacterial activity against Bacillus cereus assessed as inhibition of bacterial growth incubated for 24 hrs by microbroth dilution method.
The test system of experiment [2] is Proteus sp. Nature of the experiment: Antibacterial activity against Proteus sp. assessed as inhibition of bacterial growth incubated for 24 hrs by microbroth dilution method.
In experiment [3] the test system is Mycolicibacterium phlei. Nature of the experiment: Antibacterial activity against Mycobacterium phlei assessed as inhibition of bacterial growth incubated for 24 hrs by microbroth dilution method.
In experiment [4] the test system is Bacillus subtilis. Nature of the experiment: Antibacterial activity against Bacillus subtilis assessed as inhibition of bacterial growth incubated for 24 hrs by microbroth dilution method.
Experiment [5] has as its system Vibrio parahaemolyticus. The experiment can be described thus: Antibacterial activity against Vibrio parahaemolyticus assessed as inhibition of bacterial growth incubated for 24 hrs by microbroth dilution method.
The subject of experiment [6] is Candida albicans. The experiment can be described thus: Antifungal activity against monilia albicans assessed as inhibition of fungal growth incubated for 24 hrs by microbroth dilution method.
For experiment [7], the system named is Staphylococcus aureus. The experiment can be described thus: Antibacterial activity against methicillin-resistant Staphylococcus aureus assessed as inhibition of bacterial growth incubated for 24 hrs by microbroth dilution method.
Where [8] appears, read: Proteus sp. (in: enterobacteria), read-out: MIC.
Setting [9] is: Mycolicibacterium phlei, read-out: MIC.
Where [10] appears, read: Bacillus subtilis, read-out: MIC.

Converted amounts (≈) assume the structure as drawn. “And” between values parts separate entries of the source, which are not always exact repeats. Equal values may be shown once.

Regarding `COc1cc(-c2coc3cc(O)c(-c4cc(-c5coc6cc(O)ccc6c5=O)ccc4O)cc3c2=O)ccc1O`, the MIC was 12 µM (≈ 6.44 µg/mL) in experiment [1] (Bacillus cereus, read-out: MIC); 12 µM (≈ 6.44 µg/mL) in experiment [2] (setting [8]); 12 µM (≈ 6.44 µg/mL) in experiment [3] (setting [9]); 12 µM (≈ 6.44 µg/mL) in experiment [4] (setting [10]); 50 µM (≈ 26.8 µg/mL) in experiment [5]; above 50 µM in experiment [6]. Moreover, the MIC in experiment [7] is above 50 µM.
For `O=c1c(-c2ccc(O)c(Oc3ccc(-c4coc5c(Cl)c(O)ccc5c4=O)cc3)c2)coc2cc(O)ccc12`, the MIC in experiment [1] (Bacillus cereus, read-out: MIC) is above 50 µM; in experiment [2] (setting [8]), above 50 µM; in experiment [3] (setting [9]), above 50 µM; in experiment [4] (setting [10]) it was 0.8 µM (≈ 0.433 µg/mL); in experiment [5], 0.8 µM (≈ 0.433 µg/mL); in experiment [6], 1.6 µM (≈ 0.865 µg/mL). Further, the MIC in experiment [7] is above 50 µM.
As for `O=c1c(-c2ccc(Oc3c(O)cc(O)c4c(=O)c(-c5ccc(O)cc5)coc34)cc2)coc2c(Cl)c(O)ccc12`, the MIC is above 50 µM in experiment [1] (Bacillus cereus, read-out: MIC); above 50 µM in experiment [2] (setting [8]); above 50 µM in experiment [3] (setting [9]); 0.4 µM (≈ 0.223 µg/mL) in experiment [4] (setting [10]); above 50 µM in experiment [5]; above 50 µM in experiment [6]. Besides, in experiment [7], the MIC is above 50 µM.
Turning to `O=c1c(-c2ccc(O)c(-c3c(O)cc(O)c4c(=O)c(-c5ccc(O)cc5)coc34)c2)coc2cc(O)ccc12`, the MIC in experiment [2] (setting [8]) was 12 µM (≈ 6.27 µg/mL); in experiment [4] it was 12 µM (≈ 6.27 µg/mL); in experiment [4] (setting [10]) it was 6.2 µM (≈ 3.24 µg/mL); in experiment [6], above 50 µM; in experiment [7], above 50 µM.
Consider `O=C(O)c1cn(C2CC2)c2cc(N3CCNCC3)c(F)cc2c1=O` [CIPROFLOXACIN], for which the MIC in experiment [1] (Bacillus cereus, read-out: MIC) is below 0.4 µM; in experiment [2] (setting [8]), 0.8 µM (≈ 0.265 µg/mL); in experiment [3] (setting [9]), below 0.4 µM; in experiment [4] (setting [10]), below 0.4 µM; in experiment [5], below 0.4 µM; in experiment [7] it was above 50 µM.
For NYSTATIN, the MIC in experiment [6] came out at 25 µM.
As to `COc1c(O)ccc2c(=O)c(-c3ccc(O)c(-c4cc(-c5coc6cc(O)ccc6c5=O)ccc4O)c3)coc12`, the MIC in experiment [1] (Bacillus cereus, read-out: MIC) was 25 µM (≈ 13.4 µg/mL); in experiment [2] (setting [8]) it was above 50 µM; in experiment [3] (setting [9]) it was 25 µM (≈ 13.4 µg/mL); in experiment [4] (setting [10]), 25 µM (≈ 13.4 µg/mL); in experiment [5], above 50 µM; in experiment [6] it was above 50 µM. Moreover, the MIC in experiment [7] was above 50 µM.
Consider `O=c1c(-c2ccc(O)cc2)coc2cc(O)ccc12` [DAIDZEIN], for which the minimal inhibitory concentration (MIC) was above 50 µM in experiment [1] (Bacillus cereus, read-out: MIC); above 50 µM in experiment [2] (setting [8]); above 50 µM in experiment [3] (setting [9]); above 50 µM in experiment [4] (setting [10]); above 50 µM in experiment [5]; above 50 µM in experiment [6]. Moreover, the MIC in experiment [7] was above 50 µM.
As for `O=c1c(-c2ccc(O)cc2)coc2c(-c3cc(-c4coc5cc(O)cc(O)c5c4=O)ccc3O)c(O)ccc12`, the MIC was 12 µM (≈ 6.27 µg/mL) in experiment [1]; 6.2 µM (≈ 3.24 µg/mL) in experiment [1] (Bacillus cereus, read-out: MIC); 25 µM (≈ 13.1 µg/mL) in experiment [2]; 50 µM (≈ 26.1 µg/mL) in experiment [2] (setting [8]); 12 µM and 25 µM in experiment [3]; 25 µM and 12 µM in experiment [4]. Further, the MIC is 50 µM (≈ 26.1 µg/mL) in experiment [5] and above 50 µM in experiment [6].
As for `O=c1c(-c2ccc(O)c(-c3cc(-c4coc5c(Cl)c(O)cc(O)c5c4=O)ccc3O)c2)coc2cc(O)cc(O)c12`, the MIC was above 50 µM in experiment [1] (Bacillus cereus, read-out: MIC); above 50 µM in experiment [2] (setting [8]); above 50 µM in experiment [3] (setting [9]); above 50 µM in experiment [4] (setting [10]); 1.6 µM (≈ 0.917 µg/mL) in experiment [5]; 1.6 µM (≈ 0.917 µg/mL) in experiment [6]. In experiment [7], the MIC was above 50 µM.
For the compound `O=c1c(-c2ccc(Oc3c(O)cc(O)c4c(=O)c(-c5ccc(O)cc5)coc34)cc2)coc2c(Cl)c(O)cc(O)c12`, the MIC in experiment [1] (Bacillus cereus, read-out: MIC) was above 50 µM; in experiment [2] (setting [8]), above 50 µM; in experiment [3] (setting [9]), above 50 µM; in experiment [4] (setting [10]), 0.8 µM (≈ 0.458 µg/mL); in experiment [5] it was 3.1 µM (≈ 1.78 µg/mL); in experiment [6], 1.6 µM (≈ 0.917 µg/mL). In experiment [7], the MIC is above 50 µM.
Consider `O=c1c(-c2ccc(O)c(Oc3ccc(-c4coc5c(Cl)c(O)cc(O)c5c4=O)cc3)c2)coc2cc(O)ccc12`, for which the MIC in experiment [1] (Bacillus cereus, read-out: MIC) is above 50 µM; in experiment [2] (setting [8]), above 50 µM; in experiment [3] (setting [9]), above 50 µM; in experiment [4] (setting [10]), 1.6 µM (≈ 0.891 µg/mL); in experiment [5], 3.1 µM (≈ 1.73 µg/mL); in experiment [6], 1.6 µM (≈ 0.891 µg/mL). In experiment [7], the MIC was above 50 µM.
As for `O=c1c(-c2ccc(O)cc2)coc2cc(O)cc(O)c12` [GENISTEIN], the MIC in experiment [1] (Bacillus cereus, read-out: MIC) was above 50 µM; in experiment [2] (setting [8]), above 50 µM; in experiment [3] (setting [9]), above 50 µM; in experiment [4] (setting [10]), above 50 µM; in experiment [5], above 50 µM; in experiment [6] it was above 50 µM. Further, the MIC in experiment [7] was above 50 µM.
For `O=c1c(-c2ccc(O)c(-c3c(O)cc(O)c4c(=O)c(-c5ccc(O)cc5)coc34)c2)coc2cc(O)cc(O)c12`, the MIC was 3.1 µM (≈ 1.67 µg/mL) in experiment [1] (Bacillus cereus, read-out: MIC); 0.8 µM (≈ 0.431 µg/mL) in experiment [2] (setting [8]); 0.8 µM (≈ 0.431 µg/mL) in experiment [3] (setting [9]); 0.8 µM (≈ 0.431 µg/mL) in experiment [4] (setting [10]); 0.8 µM (≈ 0.431 µg/mL) in experiment [5]; above 50 µM in experiment [6]. For the same compound, the MIC in experiment [7] stood at 0.8 µM (≈ 0.431 µg/mL).
For `O=c1c(-c2ccc(O)c(-c3c(O)ccc4c(=O)c(-c5ccc(O)cc5)coc34)c2)coc2cc(O)ccc12`, the MIC is 3.1 µM (≈ 1.57 µg/mL) in experiment [1] (Bacillus cereus, read-out: MIC); 50 µM (≈ 25.3 µg/mL) in experiment [2] (setting [8]); 6.2 µM (≈ 3.14 µg/mL) in experiment [3] (setting [9]); 6.2 µM (≈ 3.14 µg/mL) in experiment [4] (setting [10]); 12 µM (≈ 6.08 µg/mL) in experiment [5]; above 50 µM in experiment [6]. Also, in experiment [7], the MIC is above 50 µM.
